Experimental data from patent US20030027218A1, “PEPTIDES PROMOTING THE ACTIVATION OF LATENT TGF-BETA AND METHOD FOR SCREENING TGF-BETA ACTIVITY REGULATORS” (priority 1997, published 2003).
Positions of bridges follow the written chain, without caps; N, C: chain ends. *: point of attachment. Biotin = O=C1N[C@H]2[C@H](CS[C@H]2CCCCC(=O)*)N1

Assays:
[1] = test system: bovine aortic endothelial cells (BAEC); test: Degree of binding of 125I-LLTGF-β to bovine aortic endothelial cells (radioactivity); type: cell-based; conditions: test compound 100 μg/ml
[2] = test system: bovine capillary endothelial cells (BCEC); test: Degree of binding of 125I-LLTGF-β to bovine capillary endothelial cells (radioactivity); type: cell-based; conditions: for Radioactivity (cpm), n = 4: BCEC, 2 ng/ml 125I-LLTGF-β, 4° C. 3 hours
Description: LLTGF-β isolated and purified from human platelets by the method of Okada, et al. [Journal of Biochemistry, 106, 304 (1989)] was ^125I-labeled according to the chloramine T method [Molecular & Cellular Biology, 2, 599 (1982)] in the following manner.
To 2 μg of LLTGF-β were added 25 μl of 1 M K-phosphate buffer (pH 7.5), 37 MBq of Na-^125I (DuPont NEN) and 10 μl of chloramine-T (0.5 mg/100 μl in 0.05 MK-phos. buffer, Wako Pure Chemical Industries, Ltd.), followed by stirring at room temperature for 40 seconds. After 15 μl of Na2S2O5 (1 mg/100 μl in 0.05 M K-phos. buffer) was added, the mixture was stirred at room temperature for 5 seconds, followed by addition of 100 μl of an aqueous solution of tyrosine (1 mg/ml). The reaction mixture was applied to a Sephadex G25 column and the eluate was taken in 500 μl fractions. Each fraction was subjected to measurement of radioactivity using a γ-counter (ARC-2000, Aloka Co., Ltd.). The fractions containing labeled protein were selected for use in the experiment.
The cells to be used in the experiment were obtained according to the method of Sato, et al. [Journal of Cell Biology, 123, 1249 (1993)]. Bovine vascular smooth muscle cells (BSMC) and porcine vascular smooth muscle cells (PSMC) were isolated from bovine aorta and porcine aorta, respectively, and cultured by the explant method [Journal of Cell Biology, 50, 172 (1971)]. Bovine capillary endothelial cells (BCEC) were isolated from bovine adrenal capillary and cultured. Bovine aortic endothelial cells (BAEC) were isolated from bovine aortic and cultured.
The following procedure was carried out according to the method of Sato, et al. [Journal of Cell Biology, 123, 1249 (1993)].
BSMC, PSMC and BCEC isolated and cultured in the above-described manner were respectively put into 35 mm dishes in an amount of 4×10^4 cells/dish. On the next day, the medium was replaced by Dulbecco's Modified Eagle's Medium (DMEM, Nissui Pharmaceutical Co.) containing 0.1% bovine serum albumin (BSA), followed by incubation for 5 hours. After the cells were washed with 2 ml of phosphate-buffered saline containing 0.1 g/l each of MgCl2.6H2O and CaCl2 [hereinafter sometimes referred to as PBS(+); phosphate-buffered saline containing neither MgCl2.6H2O nor CaCl2 is referred to as PBS (−)], the medium was replaced by 1 ml of ice-cold DMEM containing 0.1% BSA, 2 ng/ml ^125I-LLTGF-β and a test compound, followed by incubation at 4° C. for 3 hours. […] After being washed three times with 2 ml of ice-cold PBS(+), the cells were lysed with 900 μl of 0.5% Triton X-100 (room temperature, 0.5-1 hour), and 800 μl of the lysate was subjected to measurement of radioactivity using a γ-counter.

[3] = test system: active TGF-β; test: Determination of active TGF-β by luciferase assay (BCEC culture supernatant on MLEC carrying PAI-1 promoter luciferase); type: cell-based, bovine; conditions: BCEC incubated with test compound 24 hours
Description: The amount of active TGF-β was determined by measuring the luminescence of mink lung epithelial cells (MLEC) carrying the luciferase gene introduced downstream of the PAI-1 promoter by luciferase assay system (Promega) according to the method of Abe, et al. [Analytical Biochemistry, 216, 276 (1994)] as described below.
BCEC were cultured in a 24-well plate to make a confluent layer and then the medium was replaced by DMEM containing 0.1% BSA. After 6 hours, the cells were scraped reticulately with a comb and the remaining cells were washed with PBS (−) , followed by incubation in DMEM containing 0.1% BSA and a test compound for 24 hours. The resulting culture supernatant was taken as a sample. Six hours before the sampling of this culture supernatant, the above-mentioned MLEC were put into wells of a 96-well plate in an amount of 2.8×10^4 cells/well. After the cells were cultured in DMEM containing 10% fetal calf serum (FCS) for 6 hours, the medium was replaced by the above culture supernatant sample, followed by incubation for 16 hours. The cells were washed twice with PBS (−) and then subjected to measurement of active TGF-β concentration by lucuferase assay system.

[4] = test system: bovine capillary endothelial cells (BCEC); test: Migration of bovine vascular endothelial cells (release of active TGF-β from latent TGF-β); type: cell-based; conditions: 24 hours, 10 /μg/ml
Description: The following procedure was carried out according to the method of Sato, et al. [Journal of Cell Biology, 123, 1249 (1993)]. were scraped with a razor, the remaining cells were washed with PBS (−), followed by incubation in DMEM containing 0.1% BSA and a test compound. After 24 hours, the number of the cells which migrated in four fileds of a microscope (IX70, Olympus) was counted for each dish. The test compound was added in the same manner as in Test Example 1. The migration of cells was inhibited and the release of active TGF-β from latent TGF-β was promoted by Compounds 3 and 5 to 9 at a concentration of 50 μg/ml.

[5] = test compound 100 μg/ml, vehicle 416.8 ± 89.6
[6] = concentrations indicated in FIG. 6

## Biotinyl-Gly-Arg-Arg-Leu-Lys-Leu-Lys-Val-Glu-Gln-His-Val-Glu-Leu-Tyr-Gln-Lys-Tyr-Ser-Asn-Asn-Ser-Trp-Arg-OH (Biotin-GRRLKLKVEQHVELYQKYSNNSWR-OH; SMILES CC(C)C[C@H](NC(=O)[C@H](CCCNC(=N)N)NC(=O)[C@H](CCCNC(=N)N)NC(=O)CNC(=O)CCCC[C@@H]1SC[C@@H]2NC(=O)N[C@@H]21)C(=O)N[C@@H](CCCCN)C(=O)N[C@@H](CC(C)C)C(=O)N[C@@H](CCCCN)C(=O)N[C@H](C(=O)N[C@@H](CCC(=O)O)C(=O)N[C@@H](CCC(N)=O)C(=O)N[C@@H](Cc1c[nH]cn1)C(=O)N[C@H](C(=O)N[C@@H](CCC(=O)O)C(=O)N[C@@H](CC(C)C)C(=O)N[C@@H](Cc1ccc(O)cc1)C(=O)N[C@@H](CCC(N)=O)C(=O)N[C@@H](CCCCN)C(=O)N[C@@H](Cc1ccc(O)cc1)C(=O)N[C@@H](CO)C(=O)N[C@@H](CC(N)=O)C(=O)N[C@@H](CC(N)=O)C(=O)N[C@@H](CO)C(=O)N[C@@H](Cc1c[nH]c2ccccc12)C(=O)N[C@@H](CCCNC(=N)N)C(=O)O)C(C)C)C(C)C) [Compound 16]
[1]; Table 6, vehicle 792.0 ± 107.0
  Radioactivity (cpm), n = 4: 10495.0 ± 803.0 cpm

## Biotinyl-cyclo(Cys-Val-Leu-Leu-Ser-Arg-Ala-Glu-Leu-Arg-Leu-Leu-Arg-Arg-Leu-Lys-Leu-Lys-Cys)-OH (Biotin-CVLLSRAELRLLRRLKLKC-OH; disulfide 1-19; SMILES CC(C)C[C@@H]1NC(=O)[C@H](CCC(=O)O)NC(=O)[C@H](C)NC(=O)[C@H](CCCNC(=N)N)NC(=O)[C@H](CO)NC(=O)[C@H](CC(C)C)NC(=O)[C@H](CC(C)C)NC(=O)[C@H](C(C)C)NC(=O)[C@@H](NC(=O)CCCC[C@@H]2SC[C@@H]3NC(=O)N[C@@H]32)CSSC[C@@H](C(=O)O)NC(=O)[C@H](CCCCN)NC(=O)[C@H](CC(C)C)NC(=O)[C@H](CCCCN)NC(=O)[C@H](CC(C)C)NC(=O)[C@H](CCCNC(=N)N)NC(=O)[C@H](CCCNC(=N)N)NC(=O)[C@H](CC(C)C)NC(=O)[C@H](CC(C)C)NC(=O)[C@H](CCCNC(=N)N)NC1=O) [Compound 13]
[1]; Table 5, vehicle 1076.5 ± 12.0
  Radioactivity (cpm), n = 4: 4704.0 ± 939.9 cpm

## H-Leu-Lys-Leu-Lys-Val-Glu-Gln-His-Val-Glu-Leu-Tyr-Gln-Lys-Tyr-Ser-Asn-Asn-Ser-Trp-Arg-OH (H-LKLKVEQHVELYQKYSNNSWR-OH) [Compound 15]
[2]; [5]
  Radioactivity (cpm), n = 4: 5621.1 ± 889.2 cpm

## H-Leu-Ser-Thr-Cys-Lys-Thr-Ile-Asp-Met-Glu-Leu-Val-Lys-Arg-Lys-Arg-OH (H-LSTCKTIDMELVKRKR-OH) [Compound 14]
[2]; [5]
  Radioactivity (cpm), n = 4: 3369.9 ± 166.8 cpm

## H-Leu-Ser-Thr-Ser-Lys-Thr-Ile-Asp-Met-Glu-Leu-Val-Lys-Arg-Lys-Arg-Ile-Glu-Ala-Ile-Arg-Gly-Cys-OH (H-LSTSKTIDMELVKRKRIEAIRGC-OH) [Compound 3]
[3]; [6]
  release of active TGF-β (luciferase assay): Active TGF-β was released

## H-cyclo(Cys-Leu-Ser-Thr-Ser-Lys-Thr-Ile-Asp-Met-Glu-Leu-Val-Lys-Arg-Lys-Arg-Ile-Glu-Ala-Ile-Arg-Gly-Cys)-OH (H-CLSTSKTIDMELVKRKRIEAIRGC-OH; disulfide 1-24; SMILES CC[C@H](C)[C@@H]1NC(=O)[C@H](C)NC(=O)[C@H](CCC(=O)O)NC(=O)[C@H]([C@@H](C)CC)NC(=O)[C@H](CCCNC(=N)N)NC(=O)[C@H](CCCCN)NC(=O)[C@H](CCCNC(=N)N)NC(=O)[C@H](CCCCN)NC(=O)[C@H](C(C)C)NC(=O)[C@H](CC(C)C)NC(=O)[C@H](CCC(=O)O)NC(=O)[C@H](CCSC)NC(=O)[C@H](CC(=O)O)NC(=O)[C@H]([C@@H](C)CC)NC(=O)[C@H]([C@@H](C)O)NC(=O)[C@H](CCCCN)NC(=O)[C@H](CO)NC(=O)[C@H]([C@@H](C)O)NC(=O)[C@H](CO)NC(=O)[C@H](CC(C)C)NC(=O)[C@@H](N)CSSC[C@@H](C(=O)O)NC(=O)CNC(=O)[C@H](CCCNC(=N)N)NC1=O) [Compound 10]
[3]; concentration of 10 μg/ml
  release of active TGF-β (luciferase assay): remarkable effect
[3]; [6]
  release of active TGF-β (luciferase assay): Active TGF-β was released
[4]
  migration inhibitory effect: showed the migration inhibitory effect

## H-cyclo(Cys-Val-Leu-Leu-Ser-Arg-Ala-Glu-Leu-Arg-Leu-Leu-Arg-Arg-Leu-Lys-Leu-Lys-Cys)-OH (H-CVLLSRAELRLLRRLKLKC-OH; disulfide 1-19; SMILES CC(C)C[C@@H]1NC(=O)[C@H](CCC(=O)O)NC(=O)[C@H](C)NC(=O)[C@H](CCCNC(=N)N)NC(=O)[C@H](CO)NC(=O)[C@H](CC(C)C)NC(=O)[C@H](CC(C)C)NC(=O)[C@H](C(C)C)NC(=O)[C@@H](N)CSSC[C@@H](C(=O)O)NC(=O)[C@H](CCCCN)NC(=O)[C@H](CC(C)C)NC(=O)[C@H](CCCCN)NC(=O)[C@H](CC(C)C)NC(=O)[C@H](CCCNC(=N)N)NC(=O)[C@H](CCCNC(=N)N)NC(=O)[C@H](CC(C)C)NC(=O)[C@H](CC(C)C)NC(=O)[C@H](CCCNC(=N)N)NC1=O) [Compound 12]
[2]; test compound 30 μg/ml, vehicle 163.1 ± 28.3
  Radioactivity (cpm), n = 4: 2739.9 ± 182.8 cpm
[2]; concentration of 30 μg/ml, BCEC (Table 3)
  degree of binding of TGF-β to cells: increased
